This note sets out measurements from ChEMBL document CHEMBL1138148, “Conformational constraint in oxazolidinone antibacterials. Part 2: Synthesis and structure-activity studies of oxa-, aza-, and thiabicyclo[3.1.0]hexylphenyl oxazolidinones” (2006).

Each structure is given as a SMILES string. Values after ≈ are worked out from the molar mass of the structure shown.

Holding throughout (assay type): functional
For test [1], the system named is Staphylococcus aureus. The test can be described thus: Antibacterial activity against Staphylococcus aureus UC-76 SA-1.
The test system of a further test is Streptococcus pneumoniae. Kind of test: Antibacterial activity against Streptococcus pneumoniae SVI SP-3.
The test system of another test is Enterococcus faecalis. Kind of test: Antibacterial activity against Enterococcus faecalis MGH-2 EF1-1.
The next test concerns Haemophilus influenzae. The test can be described thus: Antibacterial activity against Haemophilus influenzae HI3542. The settings on record: HI-3542.
The subject of the next test is Moraxella catarrhalis. The test can be described thus: Antibacterial activity against Moraxella catarrhalis BC-3531.
Test [2] deals with Staphylococcus aureus. The test can be described thus: In vivo efficacy in mouse infected with Staphylococcus aureus UC 9213 administered po. The settings on record: UC 9213, po.

By ED50 is commonly meant the dose at which the effect has come halfway, by size or by number of responders. With `CC(=O)NC[C@H]1CN(c2cc(F)c([C@H]3[C@@H]4CS(=O)(=O)C[C@@H]43)c(F)c2)C(=O)O1`, the MIC is 2 µg/mL (≈ 4.99 µM) against Staphylococcus aureus [1]; 1 µg/mL (≈ 2.5 µM) with Streptococcus pneumoniae; 2 µg/mL (≈ 4.99 µM) with Enterococcus faecalis; 8 µg/mL (≈ 20 µM) with Haemophilus influenzae; 4 µg/mL (≈ 9.99 µM) in the test on Moraxella catarrhalis. In the test with Staphylococcus aureus [2], this compound showed an ED50 of 3.1 mg/kg.
Take `CC(=O)NC[C@H]1CN(c2ccc([C@H]3[C@@H]4CN(C(N)=O)C[C@@H]43)c(F)c2)C(=O)O1`: the MIC against Staphylococcus aureus [1] amounted to 2 µg/mL (≈ 5.31 µM); against Streptococcus pneumoniae, 2 µg/mL (≈ 5.31 µM); in the test on Enterococcus faecalis, 2 µg/mL (≈ 5.31 µM); in the test on Haemophilus influenzae, 8 µg/mL (≈ 21.3 µM); with Moraxella catarrhalis, 8 µg/mL (≈ 21.3 µM). In the test on Staphylococcus aureus [2], this compound gave an ED50 of 15.3 mg/kg.
Take `CC(=O)NC[C@H]1CN(c2ccc([C@H]3[C@@H]4CS(=O)(=O)C[C@@H]43)c(F)c2)C(=O)O1`: the MIC against Staphylococcus aureus [1] came to 4 µg/mL (≈ 10.5 µM); with Streptococcus pneumoniae, 2 µg/mL (≈ 5.23 µM); in the test with Enterococcus faecalis it was 4 µg/mL (≈ 10.5 µM); against Haemophilus influenzae, 8 µg/mL (≈ 20.9 µM); against Moraxella catarrhalis, 8 µg/mL (≈ 20.9 µM). The same compound showed an ED50 in the test on Staphylococcus aureus [2] of 4.2 mg/kg.
`CC(=O)NC[C@H]1CN(c2ccc([C@H]3[C@@H]4CS(=O)(=O)C[C@@H]43)cc2)C(=O)O1`: the MIC with Staphylococcus aureus [1] is 4 µg/mL (≈ 11 µM); in the test on Streptococcus pneumoniae it was 4 µg/mL (≈ 11 µM); with Enterococcus faecalis it was 8 µg/mL (≈ 22 µM); in the test with Haemophilus influenzae, 16 µg/mL (≈ 43.9 µM); in the test with Moraxella catarrhalis, 8 µg/mL (≈ 22 µM). Also, the ED50 in the test with Staphylococcus aureus [2] was found to be 7.2 mg/kg.
Regarding `CC(=O)NC[C@H]1CN(c2ccc([C@H]3[C@@H]4CN(C(=O)CO)C[C@@H]43)c(F)c2)C(=O)O1`, the MIC in the test with Staphylococcus aureus [1] is 2 µg/mL (≈ 5.11 µM); in the test on Streptococcus pneumoniae, 2 µg/mL (≈ 5.11 µM); in the test on Enterococcus faecalis, 2 µg/mL (≈ 5.11 µM); in the test on Haemophilus influenzae, 4 µg/mL (≈ 10.2 µM); against Moraxella catarrhalis it was 8 µg/mL (≈ 20.4 µM). For the same compound, in the test with Staphylococcus aureus [2], the ED50 was 2.2 mg/kg.
